US9809598B2 (Merck Patent GmbH, priority 2014, dated 2017)
Structures can show the parent of a compound that is named as a salt.

What was measured:
PARP-1 = target: T1, PARP-1 (Homo sapiens, UniProt P09874); test: PARP-1 autoparsylation assay (HTRF); type: biochemical; settings: His-tagged Parp-1, autoparsylation HTRF
T1 construct: purchased Enzo Life Sciences GmbH, Lörrach, Germany
How it was run: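 His-tagged enzyme auto-modifies itself using biotinylated NAD/NAD; product detected by TR-FRET between cryptate anti-His antibody and Xlent-streptavidin, as emission ratio.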

TNKS1 = target: T2, TNKS1 (Homo sapiens, UniProt O95271); test: TNKS1 activity ELISA (autoparsylation assay); type: biochemical; settings: GST-tagged Tnks-1 (1023-1327 aa)
T2 construct: GST-tagged Tnks-1 (1023-1327 aa, prepared in-house); made in house
T2 sequence (O95271 1023-1327): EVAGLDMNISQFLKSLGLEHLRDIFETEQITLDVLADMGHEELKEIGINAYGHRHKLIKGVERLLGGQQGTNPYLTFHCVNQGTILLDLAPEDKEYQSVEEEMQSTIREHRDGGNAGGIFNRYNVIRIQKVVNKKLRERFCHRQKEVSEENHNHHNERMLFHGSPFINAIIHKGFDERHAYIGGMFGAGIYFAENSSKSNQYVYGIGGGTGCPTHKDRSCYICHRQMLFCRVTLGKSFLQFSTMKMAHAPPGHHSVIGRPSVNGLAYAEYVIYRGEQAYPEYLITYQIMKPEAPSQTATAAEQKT
How it was run: (§1)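 GST-tagged TNKS1 or TNKS2 captured on glutathione plates and allowed to auto-PARsylate with biotinylated NAD with or without compound. Biotin-ADP-ribosylated enzyme detected by streptavidin-HRP and luminescence; IC50 relative to inhibitor-free reaction.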

TNKS2 = target: T3, TNKS2 (Homo sapiens, UniProt Q9H2K2); test: TNKS2 activity ELISA (autoparsylation assay); type: biochemical; settings: GST-tagged Tnks-2 (873-1166 aa); read-out: IC50 [M] TNKS2 ELISA
T3 construct: GST-tagged Tnks-2 (873-1166 aa, prepared in-house); made in house
T3 sequence (Q9H2K2 873-1166): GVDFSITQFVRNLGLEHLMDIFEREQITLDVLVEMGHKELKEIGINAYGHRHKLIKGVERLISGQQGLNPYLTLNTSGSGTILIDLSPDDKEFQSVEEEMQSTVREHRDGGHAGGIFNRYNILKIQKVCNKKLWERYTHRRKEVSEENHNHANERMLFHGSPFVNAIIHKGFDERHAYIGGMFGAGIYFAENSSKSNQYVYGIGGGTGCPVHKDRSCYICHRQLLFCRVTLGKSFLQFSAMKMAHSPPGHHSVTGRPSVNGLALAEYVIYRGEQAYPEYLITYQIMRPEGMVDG
How it was run: as §1

Tankyrases = settings: read-out: EC50 [M] TNKS cellular assay; DLD1 cells, 24 hours, Axin2 increase

T1 sequence (P09874 whole entry): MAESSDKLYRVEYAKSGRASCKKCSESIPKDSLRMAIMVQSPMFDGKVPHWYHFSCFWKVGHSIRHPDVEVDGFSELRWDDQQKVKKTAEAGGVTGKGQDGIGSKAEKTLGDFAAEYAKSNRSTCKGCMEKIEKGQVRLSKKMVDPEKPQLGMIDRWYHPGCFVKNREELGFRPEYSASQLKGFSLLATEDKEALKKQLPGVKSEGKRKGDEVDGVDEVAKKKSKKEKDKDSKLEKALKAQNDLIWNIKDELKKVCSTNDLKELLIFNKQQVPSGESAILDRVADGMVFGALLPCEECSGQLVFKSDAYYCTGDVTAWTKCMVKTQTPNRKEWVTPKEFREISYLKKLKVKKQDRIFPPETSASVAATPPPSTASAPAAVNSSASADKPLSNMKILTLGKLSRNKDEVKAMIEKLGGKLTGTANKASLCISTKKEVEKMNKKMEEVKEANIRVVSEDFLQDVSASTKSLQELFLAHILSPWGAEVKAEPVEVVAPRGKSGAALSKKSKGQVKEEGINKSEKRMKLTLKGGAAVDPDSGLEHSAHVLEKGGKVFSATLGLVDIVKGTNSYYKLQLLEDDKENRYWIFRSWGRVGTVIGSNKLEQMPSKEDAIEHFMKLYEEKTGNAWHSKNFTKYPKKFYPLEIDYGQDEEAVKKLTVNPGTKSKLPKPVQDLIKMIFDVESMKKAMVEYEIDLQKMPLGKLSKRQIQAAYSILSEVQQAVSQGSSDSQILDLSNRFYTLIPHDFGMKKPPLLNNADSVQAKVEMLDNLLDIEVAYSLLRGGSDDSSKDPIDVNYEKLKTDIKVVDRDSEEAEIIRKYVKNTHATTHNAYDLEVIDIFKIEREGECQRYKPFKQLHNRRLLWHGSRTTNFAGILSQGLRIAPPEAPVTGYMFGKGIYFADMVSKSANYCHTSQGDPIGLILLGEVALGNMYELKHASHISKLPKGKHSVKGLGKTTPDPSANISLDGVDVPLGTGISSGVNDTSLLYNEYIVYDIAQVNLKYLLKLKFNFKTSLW

COc1ccc(C(=O)C2CCN(C(=O)CCCc3nn4c(C)ccc4c(=O)[nH]3)CC2)cn1 [Compound C148, 2-{4-[4-(6-Methoxy-pyridine-3-carbonyl)-piperidin-1-yl]-4-oxo-butyl}-7-methyl-3H-pyrrolo[2,1-f][1,2,4]triazin-4-one]
IC50 (PARP-1): 770 nM | IC50 (TNKS1): 0.28 nM | IC50 (TNKS2): 1.9e-10 M | EC50 (Tankyrases): 1.4e-09 M

Cc1cc2c(=O)[nH]c(CCCC(=O)N3CCC(C(=O)c4cnn(C)c4)CC3)cn2n1 [Compound C209, 2-Methyl-6-{4-[4-(1-methyl-1H-pyrazole-4-carbonyl)-piperidin-1-yl]-4-oxo-butyl}-5H-pyrazolo[1,5-a]pyrazin-4-one]
IC50 (PARP-1): 8500 nM | IC50 (TNKS1): 0.76 nM | IC50 (TNKS2): 7.9e-10 M | EC50 (Tankyrases): 1e-08 M

COc1ccc(C(=O)C2CCN(C(=O)CCCc3nc4c(C)csc4c(=O)[nH]3)CC2)cc1 [Compound C35, 2-{4-[4-(4-Methoxy-benzoyl)-piperidin-1-yl]-4-oxo-butyl}-7-methyl-3H-thieno-[3,2-d]pyrimidin-4-one]
IC50 (PARP-1): 130 nM | IC50 (TNKS1): 0.19 nM | IC50 (TNKS2): 1.1e-10 M | EC50 (Tankyrases): 4.2e-10 M

Cc1ccc2c(=O)[nH]c(CCCC(=O)N3CCC(c4cnc(N)c(-c5ncccn5)c4)CC3)nn12 [Compound C150, 2-[4-(6-Amino-5-pyrimidin-2-yl-3′,4′,5′,6′-tetrahydro-2′H-[3,4′]bipyridinyl-1′-yl)-4-oxo-butyl]-7-methyl-3H-pyrrolo[2,1-f][1,2,4]triazin-4-one]
IC50 (PARP-1): 1300 nM | IC50 (TNKS1): 0.23 nM | IC50 (TNKS2): 2.8e-10 M | EC50 (Tankyrases): 1.1e-09 M

Cc1csc2c(=O)[nH]c(CCCC(=O)N3CCC(c4cnc(N)c(C#N)c4)CC3)nc12 [Compound C56, 6-Amino-1′-[4-(7-methyl-4-oxo-3,4-dihydro-thieno[3,2-d]pyrimidin-2-yl)-butyryl]-1′,2′,3′,4′,5′,6′-hexahydro-[3,4′]bipyridinyl-5-carbonitrile]
IC50 (PARP-1): 360 nM | IC50 (TNKS1): 0.95 nM | IC50 (TNKS2): 5.3e-10 M | EC50 (Tankyrases): 3.6e-08 M

Cc1cc2c(=O)[nH]c(CCCC(=O)N3CCC(c4cnc(N)c(C#N)c4)CC3)nn2c1 [Compound C160, 6-Amino-1′-[4-(6-methyl-4-oxo-3,4-dihydro-pyrrolo[2,1-f][1,2,4]triazin-2-yl)-butyryl]-1′,2′,3′,4′,5′,6′-hexahydro-[3,4′]bipyridinyl-5-carbonitrile]
IC50 (PARP-1): 3300 nM | IC50 (TNKS1): 1.8 nM | IC50 (TNKS2): 1e-08 M | EC50 (Tankyrases): 4.9e-08 M

O=C(c1ccc(Cl)cc1)C1CCN(C(=O)CCCc2nc3c(c(=O)[nH]2)COCC3)CC1 [Compound C247, 2-{4-[4-(4-Chloro-benzoyl)-piperidin-1-yl]-4-oxo-butyl}-3,5,7,8-tetrahydro-pyrano[4,3-d]pyrimidin-4-one trifluoroacetate]
IC50 (PARP-1): 3500 nM | IC50 (TNKS1): 3.3 nM | IC50 (TNKS2): 6.6e-10 M | EC50 (Tankyrases): 2.1e-08 M

Cc1ccc(C(=O)C2CCN(C(=O)CCCc3nc4c(cnn4C)c(=O)[nH]3)CC2)cc1 [Compound C234, 1-Methyl-6-{4-[4-(4-methyl-benzoyl)-piperidin-1-yl]-4-oxo-butyl}-1,5-dihydro-pyrazolo[3,4-d]pyrimidin-4-one]
IC50 (PARP-1): 18000 nM | IC50 (TNKS1): 0.66 nM | IC50 (TNKS2): 3e-10 M | EC50 (Tankyrases): 1.6e-08 M

CC(C)(O)c1ccc(C(=O)C2CCN(C(=O)CCCc3nn4cccc4c(=O)[nH]3)CC2)cc1 [Compound C144, 2-(4-{4-[4-(1-Hydroxy-1-methyl-ethyl)-benzoyl]-piperidin-1-yl}-4-oxo-butyl)-3H-pyrrolo[2,1-f][1,2,4]triazin-4-one]
IC50 (PARP-1): 11000 nM | IC50 (TNKS1): 7.3 nM | IC50 (TNKS2): 3.5e-09 M | EC50 (Tankyrases): 8.3e-08 M

Cc1ccc2c(=O)[nH]c(CCCC(=O)N3CCC(Oc4ccc(C#N)cc4)CC3)cn12 [Compound C7, 4-{1-[4-(6-Methyl-1-oxo-1,2-dihydro-pyrrolo[1,2-a]pyrazin-3-yl)-butyryl]-piperidin-4-yloxy}-benzonitrile]
IC50 (PARP-1): 1800 nM | IC50 (TNKS1): 2.6 nM | IC50 (TNKS2): 2e-09 M | EC50 (Tankyrases): 4.7e-08 M

Cc1scc2c(=O)[nH]c(CCCC(=O)N3CCC(c4cnc(N)c(-c5ncccn5)c4)CC3)nc12 [Compound C116, 2-[4-(6-Amino-5-pyrimidin-2-yl-3′,4′,5′,6′-tetrahydro-2′H-[3,4′]bipyridinyl-1′-yl)-4-oxo-butyl]-7-methyl-3H-thieno[3,4-d]pyrimidin-4-one]
IC50 (PARP-1): 970 nM | IC50 (TNKS1): 0.37 nM | IC50 (TNKS2): 2.1e-10 M | EC50 (Tankyrases): 3.6e-09 M

Cn1cc(C(=O)C2CCN(C(=O)CCCc3cn4cccc4c(=O)[nH]3)CC2)cn1 [Compound C22, 3-{4-[4-(1-Methyl-1H-pyrazole-4-carbonyl)-piperidin-1-yl]-4-oxo-butyl}-2H-pyrrolo[1,2-a]pyrazin-1-one]
IC50 (PARP-1): 5200 nM | IC50 (TNKS1): 0.25 nM | IC50 (TNKS2): 3e-10 M | EC50 (Tankyrases): 4.5e-09 M

Cc1scc2c(=O)[nH]c(CCCC(=O)N3CCC(C(=O)c4ccc(F)cc4)CC3)nc12 [Compound C119, 2-{4-[4-(4-Fluoro-benzoyl)-piperidin-1-yl]-4-oxo-butyl}-7-methyl-3H-thieno[3,4-d]pyrimidin-4-one]
IC50 (PARP-1): 850 nM | IC50 (TNKS1): 0.9 nM | IC50 (TNKS2): 6.2e-10 M | EC50 (Tankyrases): 3.3e-08 M

Cc1cc2c(=O)[nH]c(CCCC(=O)N3CCC(C(=O)c4ccc(C(C)(C)O)cc4)CC3)nn2c1 [Compound C166, 2-(4-{4-[4-(1-Hydroxy-1-methyl-ethyl)-benzoyl]-piperidin-1-yl}-4-oxo-butyl)-6-methyl-3H-pyrrolo[2,1-f][1,2,4]triazin-4-one]
IC50 (PARP-1): 1400 nM | IC50 (TNKS1): 12 nM | IC50 (TNKS2): 1.7e-08 M | EC50 (Tankyrases): 1.8e-07 M

COc1ccc(C(=O)C2CCN(C(=O)CCCc3nn4cc(F)cc4c(=O)[nH]3)CC2)cc1F [Compound C169, 6-Fluoro-2-{4-[4-(3-fluoro-4-methoxy-benzoyl)-piperidin-1-yl]-4-oxo-butyl}-3H-pyrrolo[2,1-f][1,2,4]triazin-4-one]
IC50 (PARP-1): 2200 nM | IC50 (TNKS1): 0.17 nM | IC50 (TNKS2): 2.2e-10 M | EC50 (Tankyrases): 2.5e-09 M

Cc1ccc2c(=O)[nH]c(CCCC(=O)N3CCC(C(=O)c4ccc(C(C)(C)O)cc4)CC3)nn12 [Compound C155, 2-(4-{4-[4-(1-Hydroxy-1-methyl-ethyl)-benzoyl]-piperidin-1-yl}-4-oxo-butyl)-7-methyl-3H-pyrrolo[2,1-f][1,2,4]triazin-4-one]
IC50 (PARP-1): 600 nM | IC50 (TNKS1): 0.57 nM | IC50 (TNKS2): 3.8e-10 M | EC50 (Tankyrases): 1.6e-08 M

COc1ccc(C(=O)C2CCN(C(=O)CCCc3nc4c(c(=O)[nH]3)CCCC4)CC2)cc1 [Compound C227, 2-{4-[4-(4-Methoxy-benzoyl)-piperidin-1-yl]-4-oxo-butyl}-5,6,7,8-tetrahydro-3H-quinazolin-4-one]
IC50 (PARP-1): 410 nM | IC50 (TNKS1): 0.66 nM | IC50 (TNKS2): 4.2e-10 M | EC50 (Tankyrases): 3.7e-09 M

CCn1cc(C(=O)C2CCN(C(=O)CCCc3nc4c(ccn4C)c(=O)[nH]3)CC2)cn1 [Compound C243, 2-{4-[4-(1-Ethyl-1H-pyrazole-4-carbonyl)-piperidin-1-yl]-4-oxo-butyl}-7-methyl-3,7-dihydro-pyrrolo[2,3-d]pyrimidin-4-one]
IC50 (PARP-1): 4200 nM | IC50 (TNKS1): 0.47 nM | IC50 (TNKS2): 2.2e-10 M | EC50 (Tankyrases): 3.4e-08 M

COc1ccc(C(=O)C2CCN(C(=O)CCCc3nn4cccc4c(=O)[nH]3)CC2)cc1F [Compound C136, 2-{4-[4-(3-Fluoro-4-methoxy-benzoyl)-piperidin-1-yl]-4-oxo-butyl}-3H-pyrrolo[2,1-f][1,2,4]triazin-4-one]
IC50 (PARP-1): 3100 nM | IC50 (TNKS1): 0.25 nM | IC50 (TNKS2): 2.1e-10 M | EC50 (Tankyrases): 3.6e-09 M

CC(C)(O)c1ccc(C(=O)C2CCN(C(=O)CCCc3nn4cc(F)cc4c(=O)[nH]3)CC2)cc1 [Compound C177, 6-Fluoro-2-(4-{4-[4-(1-hydroxy-1-methyl-ethyl)-benzoyl]-piperidin-1-yl}-4-oxo-butyl)-3H-pyrrolo[2,1-f][1,2,4]triazin-4-one]
IC50 (PARP-1): 8000 nM | IC50 (TNKS1): 7.1 nM | IC50 (TNKS2): 4.8e-09 M | EC50 (Tankyrases): 6.7e-08 M

N#Cc1cc(C2CCN(C(=O)CCCc3nc4c(c(=O)[nH]3)COCC4)CC2)cnc1N [Compound C194, 6-Amino-1′-[4-(4-oxo-3,5,7,8-tetrahydro-4H-pyrano[4,3-d]pyrimidin-2-yl)-butyryl]-1′,2′,3′,4′,5′,6′-hexahydro-[3,4′]bipyridinyl-5-carbonitrile]
IC50 (PARP-1): 4900 nM | IC50 (TNKS1): 15 nM | IC50 (TNKS2): 4.5e-09 M | EC50 (Tankyrases): 3.1e-06 M

O=C(c1ccc(F)cc1)C1CCN(C(=O)CCCc2nc3c(c(=O)[nH]2)COCC3)CC1 [Compound C198, 2-{4-[4-(4-Fluoro-benzoyl)-piperidin-1-yl]-4-oxo-butyl}-3,5,7,8-tetrahydro-pyrano[4,3-d]pyrimidin-4-one]
IC50 (PARP-1): 5200 nM | IC50 (TNKS1): 12 nM | IC50 (TNKS2): 4e-09 M | EC50 (Tankyrases): 7.5e-08 M

Cc1ccc(C(=O)C2CCN(C(=O)CCCc3nn4cccc4c(=O)[nH]3)CC2)cc1 [Compound C235, 2-{4-[4-(4-Methyl-benzoyl)-piperidin-1-yl]-4-oxo-butyl}-3H-pyrrolo[2,1-f][1,2,4]triazin-4-one]
IC50 (PARP-1): 3000 nM | IC50 (TNKS1): 0.57 nM | IC50 (TNKS2): 3.9e-10 M | EC50 (Tankyrases): 3.9e-09 M

Cc1cc2c(=O)[nH]c(CCCC(=O)N3CCC(C(=O)c4cnn(C(C)C)c4)CC3)nn2c1 [Compound C220, 2-{4-[4-(1-Isopropyl-1H-pyrazole-4-carbonyl)-piperidin-1-yl]-4-oxo-butyl}-6-methyl-3H-pyrrolo[2,1-f][1,2,4]triazin-4-one]
IC50 (PARP-1): 6200 nM | IC50 (TNKS1): 4.2 nM | IC50 (TNKS2): 3.7e-09 M | EC50 (Tankyrases): 4e-08 M
